Laboratory results taken from patent publication US6525001B1, “Substituted pyrimidine and pyridine herbicides” (Mid-American Commercialization Corporation, priority 1997, dated 2003).

How the values were obtained:
Type in all cases: in vivo
[1] = system: velvetleaf (Abutilon theophrasti); assay: Test B pre-/postemergence; parameters: key: 0 is no effect; 10 is complete control
How it was run: (§1)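 Compounds in a surfactant-containing, non-phytotoxic solvent blend are applied to freshly planted seed (preemergence) and, concurrently, to seedlings of 2 to 18 cm at 1–4 leaves (postemergence). Plants stay in the greenhouse twelve to sixteen days and are then scored visually from 0 (no effect) to 10 (complete control).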

[2] = system: pigweed (Amaranthus retroflexus); assay: Test B pre-/postemergence; parameters: key: 0 is no effect; 10 is complete control
How it was run: as §1

wild oat (Avena fatua) = assay: Test B pre-/postemergence; parameters: key: 0 is no effect; 10 is complete control
How it was run: as §1

[3] = system: wheat (Triticum aestivum); assay: Test B pre-/postemergence; parameters: key: 0 is no effect; 10 is complete control
How it was run: as §1

[4] = system: cocklebur (Xanthium strumarium); assay: Test B pre-/postemergence; parameters: key: 0 is no effect; 10 is complete control; conditions: for Cocklebur plant response rating: Preemergence
How it was run: as §1

[5] = system: bedstraw (Galium aparine); assay: Test B pre-/postemergence; parameters: key: 0 is no effect; 10 is complete control; conditions: for Bedstraw plant response rating: Preemergence
How it was run: as §1

[6] = system: giant foxtail (Setaria faberii); assay: Test B pre-/postemergence; parameters: key: 0 is no effect; 10 is complete control
How it was run: as §1

[7] = system: purple nutsedge (Cyperus rotundus); assay: Test B pre-/postemergence; parameters: key: 0 is no effect; 10 is complete control; conditions: Postemergence
How it was run: as §1

[8] = system: broadleaf signalgrass (Brachiaria decumbens); assay: Test B pre-/postemergence; parameters: key: 0 is no effect; 10 is complete control; conditions: for B. signalgrass plant response rating: Preemergence
How it was run: as §1

rape (Brassica napus) = assay: Test B pre-/postemergence; parameters: key: 0 is no effect; 10 is complete control
How it was run: as §1

[9] = system: sugar beet (Beta vulgaris); assay: Test B pre-/postemergence; parameters: key: 0 is no effect; 10 is complete control
How it was run: as §1

[10] = system: momingglory (Ipomoea hederacea); assay: Test B pre-/postemergence; parameters: key: 0 is no effect; 10 is complete control
How it was run: as §1

[11] = system: blackgrass (Alopecurus myosuroides); assay: Test B pre-/postemergence; parameters: key: 0 is no effect; 10 is complete control; conditions: for Blackgrass plant response rating: Preemergence
How it was run: as §1

corn (Zea mays) = assay: Test B pre-/postemergence; parameters: key: 0 is no effect; 10 is complete control; conditions: for Corn plant response rating: Preemergence
How it was run: as §1

[12] = system: crabgrass (Digitaria sanguinalis); assay: Test B pre-/postemergence; parameters: key: 0 is no effect; 10 is complete control; conditions: for Crabgrass plant response rating: Preemergence
How it was run: as §1

soybean (Glycine max) = assay: Test B pre-/postemergence; parameters: key: 0 is no effect; 10 is complete control
How it was run: as §1

[13] = system: bamyardgrass (Echinochloa crus-galli); assay: Test B flood test
How it was run: (§2)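 Read-out is a visual response score from 0 (no effect) to 10 (complete control), assigned by comparison with untreated controls. Treatment was applied at the 2-leaf stage, and plants stayed in the greenhouse for twelve to sixteen days before scoring.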

rice (Oryza sativa) = assay: Test B flood test
How it was run: as §2

[14] = system: duck salad (Heteranthera limosa); assay: Test B flood test
How it was run: as §2

[15] = system: smallflower flatsedge (Cyperus difformis); assay: Test B flood test
How it was run: as §2

[16] = Rate 250 g/ha, Postemergence (so in the source)
[17] = Rate 62 g/ha, Postemergence (flood test)
[18] = Rate 125 g/ha, Postemergence, flood test
[19] = Rate 250 g/ha, Postemergence (flood test species)
[20] = Rate 125 g/ha, Postemergence section (flood test species)

In the case of CCc1cnc(-n2cnc(C(F)(F)F)n2)nc1Cc1cccc(OC(F)(F)F)c1 [Compound 50], the “Plant response rating, Velvetleaf” value ([1]; Rate 62 g/ha, Postemergence) is reported as 6, the “Velvetleaf plant response rating” value ([1]; Rate 62 g/ha, Preemergence) is reported as 4 and the “Velvetleaf plant response rating” value ([1]; Rate 125 g/ha, Postemergence) is reported as 7. The “Plant response rating, Velvetleaf” value ([1]; Rate 125 g/ha, Preemergence) was 7, the “Plant response rating, Velvetleaf” value ([1]; Rate 250 g/ha, Postemergence) was 8 and the “Plant response rating, Velvetleaf” value [1, 16] was 9. For the same compound, the “Plant response rating, Redroot pigweed” value ([2]; Rate 62 g/ha, Postemergence) was 8, the “Redroot pigweed plant response rating” value ([2]; Rate 62 g/ha, Preemergence) was 7 and the “Redroot pigweed plant response rating” value ([2]; Rate 125 g/ha, Postemergence) was 8. The “Redroot pigweed plant response rating” value ([2]; Rate 125 g/ha, Preemergence) was 9, the “Plant response rating, Redroot pigweed” value ([2]; Rate 250 g/ha, Postemergence) was 9 and the “Plant response rating, Redroot pigweed” value [2, 16] was 9. The “Wild oats plant response rating” value (wild oat (Avena fatua); Rate 62 g/ha, Postemergence) was 2, the “Wild oats plant response rating” value (wild oat (Avena fatua); Rate 62 g/ha, Preemergence) was 3 and the “Wild oats plant response rating” value (wild oat (Avena fatua); Rate 125 g/ha, Postemergence) was 3. For the same compound, the “Plant response rating, Wild oats” value (wild oat (Avena fatua); Rate 125 g/ha, Preemergence) was 4, the “Plant response rating, Wild oats” value (wild oat (Avena fatua); Rate 250 g/ha, Postemergence) was 4 and the “Plant response rating, Wild oats” value (wild oat (Avena fatua); [16]) was 8. For the same compound, the “Wheat plant response rating” value ([3]; Rate 62 g/ha, Postemergence) was 3, the “Wheat plant response rating” value ([3]; Rate 62 g/ha, Preemergence) was 1 and the “Wheat plant response rating” value ([3]; Rate 125 g/ha, Postemergence) was 3. For the same compound, the “Plant response rating, Wheat” value ([3]; Rate 125 g/ha, Preemergence) was 2, the “Plant response rating, Wheat” value ([3]; Rate 250 g/ha, Postemergence) was 4 and the “Plant response rating, Wheat” value [3, 16] was 2. For the same compound, the “Plant response rating, Cocklebur” value ([4]; Rate 62 g/ha, Postemergence) was 4, the “Cocklebur plant response rating” value ([4]; Rate 62 g/ha) was 0 and the “Plant response rating, Cocklebur” value ([4]; Rate 125 g/ha, Postemergence) was 4. The “Cocklebur plant response rating” value ([4]; Rate 125 g/ha) was 0, the “Plant response rating, Cocklebur” value ([4]; Rate 250 g/ha, Postemergence) was 7 and the “Plant response rating, Cocklebur” value [4, 16] was 0. For the same compound, the “Plant response rating, Bedstraw” value ([5]; Rate 62 g/ha, Postemergence) was 9, the “Bedstraw plant response rating” value ([5]; Rate 62 g/ha) was 2 and the “Plant response rating, Bedstraw” value ([5]; Rate 125 g/ha, Postemergence) was 10. The “Bedstraw plant response rating” value ([5]; Rate 125 g/ha) was 7, the “Plant response rating, Bedstraw” value [5, 16] was 9 and the “Plant response rating, Giant foxtail” value ([6]; Rate 62 g/ha, Postemergence) was 1. For the same compound, the “Giant foxtail plant response rating” value ([6]; Rate 62 g/ha, Preemergence) was 2, the “Giant foxtail plant response rating” value ([6]; Rate 125 g/ha, Postemergence) was 2 and the “Giant foxtail plant response rating” value ([6]; Rate 125 g/ha, Preemergence) was 7. For the same compound, the “Plant response rating, Giant foxtail” value ([6]; Rate 250 g/ha, Postemergence) was 2, the “Plant response rating, Giant foxtail” value [6, 16] was 8 and the “Plant response rating, Nutsedge” value ([7]; Rate 62 g/ha) was 2. For the same compound, the “Nutsedge plant response rating” value ([7]; Rate 125 g/ha) was 2, the “Plant response rating, Nutsedge” value ([7]; Rate 250 g/ha) was 2 and the “Plant response rating, B. signalgrass” value ([8]; Rate 62 g/ha, Postemergence) was 1. For the same compound, the “B. signalgrass plant response rating” value ([8]; Rate 62 g/ha) was 0, the “Plant response rating, B. signalgrass” value ([8]; Rate 125 g/ha, Postemergence) was 1 and the “B. signalgrass plant response rating” value ([8]; Rate 125 g/ha) was 1. The “Plant response rating, B. signalgrass” value ([8]; Rate 250 g/ha, Postemergence) was 2, the “Plant response rating, B. signalgrass” value ([8]; Rate 250 g/ha, Postemergence as printed in head r139 (second section for compounds 26-50)) was 1 and the “Plant response rating, Rape” value (rape (Brassica napus); Rate 62 g/ha, Postemergence) was 9. For the same compound, the “Rape plant response rating” value (rape (Brassica napus); Rate 62 g/ha, Preemergence) was 6, the “Rape plant response rating” value (rape (Brassica napus); Rate 125 g/ha, Postemergence) was 10 and the “Rape plant response rating” value (rape (Brassica napus); Rate 125 g/ha, Preemergence) was 10. For the same compound, the “Plant response rating, Rape” value (rape (Brassica napus); Rate 250 g/ha, Postemergence) was 10, the “Plant response rating, Rape” value (rape (Brassica napus); [16]) was 10 and the “Plant response rating, Sugarbeets” value ([9]; Rate 62 g/ha, Postemergence) was 7. For the same compound, the “Sugarbeets plant response rating” value ([9]; Rate 62 g/ha, Preemergence) was 6, the “Sugarbeets plant response rating” value ([9]; Rate 125 g/ha, Postemergence) was 8 and the “Plant response rating, Sugarbeets” value ([9]; Rate 125 g/ha, Preemergence) was 6. The “Plant response rating, Sugarbeets” value ([9]; Rate 250 g/ha, Postemergence) was 10, the “Plant response rating, Sugarbeets” value [9, 16] was 10 and the “Plant response rating, Morningglory” value ([10]; Rate 62 g/ha, Postemergence) was 3. For the same compound, the “Morningglory plant response rating” value ([10]; Rate 62 g/ha, Preemergence) was 1, the “Morningglory plant response rating” value ([10]; Rate 125 g/ha, Postemergence) was 3 and the “Morningglory plant response rating” value ([10]; Rate 125 g/ha, Preemergence) was 3. For the same compound, the “Plant response rating, Morningglory” value ([10]; Rate 250 g/ha, Postemergence) was 3, the “Plant response rating, Morningglory” value [10, 16] was 4 and the “Plant response rating, Blackgrass” value ([11]; Rate 62 g/ha, Postemergence) was 2. The “Blackgrass plant response rating” value ([11]; Rate 62 g/ha) was 3, the “Plant response rating, Blackgrass” value ([11]; Rate 125 g/ha, Postemergence) was 5 and the “Blackgrass plant response rating” value ([11]; Rate 125 g/ha) was 5. For the same compound, the “Plant response rating, Blackgrass” value ([11]; Rate 250 g/ha, Postemergence) was 8, the “Plant response rating, Blackgrass” value [11, 16] was 10 and the “Plant response rating, Corn” value (corn (Zea mays); Rate 62 g/ha, Postemergence) was 1. For the same compound, the “Corn plant response rating” value (corn (Zea mays); Rate 62 g/ha) was 0, the “Plant response rating, Corn” value (corn (Zea mays); Rate 125 g/ha, Postemergence) was 2 and the “Corn plant response rating” value (corn (Zea mays); Rate 125 g/ha) was 0. The “Plant response rating, Corn” value (corn (Zea mays); Rate 250 g/ha, Postemergence) was 2, the “Plant response rating, Corn” value (corn (Zea mays); [16]) was 0 and the “Plant response rating, Crabgrass” value ([12]; Rate 62 g/ha, Postemergence) was 1. The “Crabgrass plant response rating” value ([12]; Rate 62 g/ha) was 6, the “Plant response rating, Crabgrass” value ([12]; Rate 125 g/ha, Postemergence) was 2 and the “Crabgrass plant response rating” value ([12]; Rate 125 g/ha) was 9. For the same compound, the “Plant response rating, Crabgrass” value ([12]; Rate 250 g/ha, Postemergence) was 6, the “Plant response rating, Crabgrass” value [12, 16] was 9 and the “Plant response rating, Soybean” value (soybean (Glycine max); Rate 62 g/ha, Postemergence) was 6. The “Soybean plant response rating” value (soybean (Glycine max); Rate 62 g/ha, Preemergence) was 1, the “Soybean plant response rating” value (soybean (Glycine max); Rate 125 g/ha, Postemergence) was 7 and the “Plant response rating, Soybean” value (soybean (Glycine max); Rate 125 g/ha, Preemergence) was 1. The “Plant response rating, Soybean” value (soybean (Glycine max); Rate 250 g/ha, Postemergence) was 7, the “Plant response rating, Soybean” value (soybean (Glycine max); [16]) was 1 and the “Plant response rating, Barnyardgrass” value [13, 17] was 3. For the same compound, the “Plant response rating, Barnyardgrass” value [13, 18] was 4, the “Plant response rating, Barnyardgrass” value [13, 19] was 4 and the “Plant response rating, Rice” value (rice (Oryza sativa); [17]) was 2. The “Rice plant response rating” value (rice (Oryza sativa); [20]) was 3, the “Plant response rating, Rice” value (rice (Oryza sativa); [19]) was 4 and the “Plant response rating, Ducksalad” value [14, 17] was 4. The “Plant response rating, Ducksalad” value [14, 18] was 5, the “Plant response rating, Ducksalad” value [14, 19] was 8 and the “Plant response rating, S. Flatsedge” value [15, 17] was 6. The “S. Flatsedge plant response rating” value [15, 20] was 8 and the “Plant response rating, S. Flatsedge” value [15, 19] was 9.
